One molecule from BindingDB's records for doi:10.1021/acsmedchemlett.3c00236 (Smith, Gambrell & Russell, 2023) can be followed below.

This assay in a line: Inhibition of NLRP3 in human THP-1 cells assessed as reduction in pyroptosis preincubated for 3 hrs followed by nigericin addition and measured after 1 hr by resazurin dye based microplate reader analysis. (In general: Resazurin is reduced to fluorescent resorufin, in cell work by metabolically active cells.)

In general, IC50 refers to the concentration needed to halve the response being measured. Regarding `CCN1CCC[C@H](Nc2nc3nc(-c4c(C)cc(Cl)c(F)c4O)ccc3o2)C1`, the IC50 was 0.6 nM.
